Measured values published in patent US5208223A, “Phosphocholine derivative inhibitors of phospholipase A2” (American Cyanamid Company, priority 1992, dated 1993).
“And” between values parts separate entries of the source, which are not always exact repeats. Equal entries are not always repeated. Structures can show the parent of a compound that is named as a salt. Where two headings read alike, the source gives them in different places. One block for each compound: values may come before it.

Experiments:
Format in all cases: biochemical
porcine pancreatic PLA2 [1] = target: T1, porcine pancreatic PLA2 (Sus scrofa, UniProt P00592); assay: HPLA2 assay: in vitro porcine pancreatic phospholipase A2, preincubation design, [s]=10 μm; conditions: for inhibition at 20 µg/mL: dose 20 μ/ml; for inhibition at 50 µg/mL: dose 50 μ/ml
T1 construct: purchased Sigma
Description: (§1) Phospholipase A2 activity was measured by a radiochemical assay in which labeled synthetic phosphatidylcholine substrate is converted by porcine pancreatic PLA2 to free radiolabeled arachidonate and lyso PC. Radiolabeled arachidonate is extracted from the reaction mixture and separated from unreacted substrate by column chromatography or TLC. Radioactivity (cpm) in samples is quantitated by liquid scintillation counting. Specific details are as follows:
(§2) Labeled substrate(1-stearyl-2-^3 H-arachidonylphosphatidylcholine; Amersham, sp. act. 84 (uCi/mmole, 0.025 to 0.2 uCi/assay tube and unlabeled substrates (Avanti), in sufficient quantity to give 20,000 cpm to 50,000 cpm and 10 μM to 1,000 μM final concentration/assay tube are dried under a stream of nitrogen. The PLA2 and mPLA2 assays utilized a […] substrate concentration. The mHPLA2 and HPLA2 assays (vida infra) utilized a 10 μM substrate concentration and the SmPLA2 assay utilized a substrate concentration ranging from 100 to 1000 μm. The substrate is then redissolved in 0.1M tris-HCl buffer, pH 9.0 containing 10 mM CaCl2 and 10 mM Na taurocholate detergent. The mixture is sonicated in a Kontes Sonifier to yield a homogeneous dispersion. The "mixed" micellar substrate is clear. An aliquot is reserved for a cpm count (total substrate). The total reaction volume is 500 μL; siliconized glassware or plasticware is used throughout. Enzyme (Sigma, sp. act.>690 U/mg protein and preferably 900 U/mg protein) is diluted 1:750 or 1:1000 in 0.1M tris-HCl buffer, pH 9.0 (without Ca^++ and detergent). Enzyme dilution depends on substrate concentration and required enzyme concentration.
(§3) The substrate in buffer is kept on ice until the reaction is started. The reaction is started by adding 10 μL of diluted enzyme solution to 490 μL of micellar substrate solution. Samples are incubated in a 37° C. water bath for 15 minutes with gentle mixing. The reaction is terminated by the addition of 100 μL of 1M fresh trichloroacetic acid (TCA) solution and chilling the tubes on ice for 30 minutes.
(§4) Samples (600 μL) are extracted with 3 ml CHCl3 /MeOH (2:1) for thin layer chromatography or in hexane/ether (9:1) for column chromatography. The phases are separated by gentle centrifugation at 700 rpm×5'. The organic phase is recovered.
Labeled arachidonate extracted with CHCl3 /MeOH is separated on silica gel G TLC plates (Analtech). Twenty μL of a 2 mg/ml internal standard solution of arachidonic acid (Sigma) is combined with 2-3 ml of the organic phase. The entire mixture is dried under nitrogen and redissolved in 50 μL of CHCl3 /MeOH (2:1). A 20 μL sample is counted in 10 ml of Beckman Redi-solv HP and spotted on silica gel G plates. […] Plates are developed in a glass chamber for 1-11/2 hours, air dried, and the spots visualized in an iodine vapor chamber. Standards of phosphatidylcholine, lyso PC, and arachidonic acid (Sigma) are made as 2 mg/ml stocks in CHCl3 /MeOH (2:1) and spotted on plates. Spots corresponding to arachidonate and phospholipid are scraped and counted in 10 ml Beckman Redi-Solv HP scintillation fluid.
(§5) Samples are extracted with hexane/ether and the upper organic phase recovered. An aliquot is applied to a Silicar CC4 (Malincrodt) column. Columns are prepared using 1 ml of a 1:1 slurry of silicar CC4 in hexane/ether in a Pasteur pipet (approx. 2 cm height). Columns are rinsed with 500 μL of hexane/ether before adding the sample (300-600 μL) to the column. Columns are eluted with a total of 6 ml of hexane/ether. The 6 ml sample is counted in 10 ml of Beckman Redi-Solv HP scintillation fluid.
or the phospholipase A2 assay, compounds are prepared as 1 mg/ml stock solutions in MeOH and diluted appropriately in PBS.

porcine pancreatic PLA2 [2] = target: T1, porcine pancreatic PLA2; assay: MHPLA2 assay: in vitro porcine pancreatic phospholipase A2, mixed micelle design, [s]=10 μm; conditions: for inhibition at 25 µg/mL: dose 25 μ/ml
Outline: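 Compounds dried with 10 μM 1-stearyl-2-[3H]-arachidonyl-PC substrate in mixed micelles (0.1M tris-HCl pH 9.0, 10 mM CaCl2, 10 mM Na taurocholate). Reaction started by adding enzyme and run 15 min at 37°C, then stopped with TCA. Released [3H]-arachidonate separated by TLC or column and counted by scintillation.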

porcine pancreatic PLA2 [3] = target: T1, porcine pancreatic PLA2; assay: PLA2 assay: in vitro porcine pancreatic phospholipase A2, preincubation of drug+enzyme, substrate 2 nM; conditions: preincubation, subs. con. 2; for inhibition at 10 µg/mL: dose 10 μ/ml; for IC50: read-out: IC50 (converted)
Outline: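 Porcine pancreatic PLA2 acting on 2 nM radiolabeled arachidonyl-phosphatidylcholine in mixed micelles (0.1 M Tris-HCl pH 9.0, 10 mM CaCl2, 10 mM Na taurocholate), 15 min at 37 °C with preincubation of drug and enzyme. Stopped with TCA; released 3H-arachidonate extracted, separated by TLC or column, counted by scintillation.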

porcine pancreatic PLA2 [4] = target: T1, porcine pancreatic PLA2; assay: SMPLA2 assay: in vitro porcine pancreatic phospholipase A2, mixed micelle design, substrate 100 to 1000 μm; conditions: subs. con. 100
Description: as §1, §2, §3, §4
Labeled arachidonate extracted with CHCl3 /MeOH is separated on silica gel G TLC plates (Analtech). Twenty μL of a 2 mg/ml internal standard solution of arachidonic acid (Sigma) is combined with 2-3 ml of the organic phase. The entire mixture is dried under nitrogen and redissolved in 50 μL of CHCl3 /MeOH (2:1). A 20 μL sample is counted in 10 ml of Beckman Redi-solv HP and spotted on silica gel G plates. The solvent system used to develop the plate is CHCl3 /MeOH/13.5N NH3 /H2 O (70:30:4:1). Plates are developed in a glass chamber for 1-11/2 hours, air dried, and the spots visualized in an iodine vapor chamber. Standards of phosphatidylcholine, lyso PC, and arachidonic acid (Sigma) are made as 2 mg/ml stocks in CHCl3 /MeOH (2:1) and spotted on plates. Spots corresponding to arachidonate and phospholipid are scraped and counted in 10 ml Beckman Redi-Solv HP scintillation fluid.
as §5
or the phospholipase A2 assay, compounds are prepared as 1 mg/ml stock solutions in MeOH and diluted appropriately in PBS. […]

porcine pancreatic PLA2 [5] = target: T1, porcine pancreatic PLA2; assay: MPLA2 assay: in vitro porcine pancreatic phospholipase A2, mixed micelle design, substrate 2 nM; conditions: for inhibition at 10 µg/mL: dose 10 μ/ml; for inhibition at 20 µg/mL: dose 20 μ/ml
Outline: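 Radiochemical PLA2 assay, mixed-micelle design: compound dried under N2 with 1-stearyl-2-[3H]-arachidonyl-PC substrate (2 nM) in 0.1M Tris-HCl pH 9.0, 10 mM CaCl2, 10 mM Na taurocholate. Reaction started with enzyme, 15 min at 37° C, stopped with TCA; released [3H]-arachidonate extracted, separated by TLC or column, counted by scintillation.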

[6] = dose 10 μ/ml, subs. con. 10, read-out: % Inh. Avg.
[7] = subs. con. 10, read-out: % Inh. Avg.
[8] = subs. con. 10, read-out: % Inh.
[9] = subs. con. 2, read-out: % Inh. Avg.

T1 sequence (P00592 23-146): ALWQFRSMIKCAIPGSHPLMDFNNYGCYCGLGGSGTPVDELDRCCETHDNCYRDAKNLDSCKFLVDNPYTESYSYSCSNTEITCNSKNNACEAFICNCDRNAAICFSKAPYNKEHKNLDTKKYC

- inhibition at 10 µg/mL (porcine pancreatic PLA2 [1]; [6]): 18%
- inhibition at 20 µg/mL (porcine pancreatic PLA2 [1]; [7]): 22%
- inhibition at 50 µg/mL (porcine pancreatic PLA2 [1]; [7]): 32%
- inhibition at 25 µg/mL (porcine pancreatic PLA2 [2]; [8]): 1%
- inhibition at 10 µg/mL (porcine pancreatic PLA2 [3]; read-out: % Inh. Avg.): 27%
- inhibition at 25 µg/mL (porcine pancreatic PLA2 [3]; dose 25 μ/ml, read-out: % Inh.): 91%
- IC50 (porcine pancreatic PLA2 [3]): 3180 nM
SMILES: CCCCCCCCCCCCCCCCOCC(COP(=O)([O-])OCC[N+](C)(C)C)OP(=O)(O)OCCCCCCCCCCCCCCCC (single isomer, unassigned; more polar) [3,5,8,10-Tetraoxa-4,9-diphosphahexacosan-1-aminium, 7-[(hexadecyloxy)methyl]-4,9-dihydroxy-N,N,N-trimethylhydroxide, 4-(inner salt), 4,9-dioxide, more polar isomer]

- % Inh. (porcine pancreatic PLA2 [1]; dose 10 μ/ml, subs. con. 10): STIM
SMILES: CCCCCCCCCCCCCCCCOCC(COP(=O)([O-])OCC[N+](C)(C)C)OP(=O)(O)OCCCCCCCCCCCCCCCC (stereo not drawn) [3,5,8,10-Tetraoxa-4,9-diphosphahexacosan-1-aminium, 7-[(hexa] [3,5,8,10-Tetraoxa-4,9-diphosphahexacosan-1-aminium, 7-[(hexadecyloxy)methyl]-4,9-dihydroxy-N,N,N-trimethyl-hydroxide, 4-(inner salt), 4,9-dioxide]

- inhibition at 20 µg/mL (porcine pancreatic PLA2 [1]; [8]): 0%
- inhibition at 50 µg/mL (porcine pancreatic PLA2 [1]; [8]): 0%
SMILES: CCCCCCCCCCCCCCCCOCC(COP(=O)([O-])OCC[N+](C)(C)C)OP(=O)(O)OCCCCCCCCCCCCCCCC (stereo not drawn) [3,5,8,10-Tetraoxa-4,9-diphosphahexacosan-1-aminium, 7-[(hexadecyloxy)methyl]-4,9-dihydroxy-N,N,N-trimethyl-, hydroxide, 4-inner salt), 4,9-dioxide]

SMILES: CCCCCCCCCCCCCCCCOCC(COP(=O)([O-])OCC[N+](C)(C)C)CC(N)CCCCCCCCCCCCCCCC (stereo not drawn) [7-(2-Aminooctadecyl)-4-hydroxy-N,N,N-trimethyl-3,5,9-trioxa-4-phosphapentacosanaminium, hydroxide, inner salt, 4-oxide]
- % Inh. (porcine pancreatic PLA2 [2]; dose 10 μ/ml, subs. con. 10): 59%
- inhibition at 10 µg/mL (porcine pancreatic PLA2 [2]; [6]): 70%
- inhibition at 20 µg/mL (porcine pancreatic PLA2 [2]; dose 20 μ/ml, subs. con. 10): 97%
- inhibition at 25 µg/mL (porcine pancreatic PLA2 [2]; [8]): 78%
- inhibition at 25 µg/mL (porcine pancreatic PLA2 [2]; [7]): 77%
- IC50 (porcine pancreatic PLA2 [2]; subs. con. 10, read-out: IC50 (converted)): 1.91 µM and 7.09 µM and 8.73 µM
- IC50 (porcine pancreatic PLA2 [2]; subs. con. 10, read-out: IC50 Avg. (converted)): 5.87 µM
- % Inh. Avg. (porcine pancreatic PLA2 [4]; dose 25 μ/ml): 61%
- inhibition at 25 µg/mL (porcine pancreatic PLA2 [4]; dose 25 μ/ml): 63%
- IC50 (porcine pancreatic PLA2 [4]; read-out: IC50 (converted)): 20.6 µM and 34.1 µM
- IC50 (porcine pancreatic PLA2 [4]; read-out: IC50 Avg. (converted)): 27.3 µM
- inhibition at 10 µg/mL (porcine pancreatic PLA2 [5]; subs. con. 2, read-out: % Inh.): 34%
- inhibition at 10 µg/mL (porcine pancreatic PLA2 [5]; [9]): 65%
- inhibition at 20 µg/mL (porcine pancreatic PLA2 [5]; subs. con. 2, read-out: % Inh.): 72%
- inhibition at 20 µg/mL (porcine pancreatic PLA2 [5]; [9]): 85%
- % Inh. (porcine pancreatic PLA2 [5]; dose 25 μ/ml, subs. con. 2): STIM
- inhibition at 25 µg/mL (porcine pancreatic PLA2 [5]; dose 25 μ/ml, subs. con. 2, read-out: % Inh.): 92%
- inhibition at 10 µg/mL (porcine pancreatic PLA2 [3]; read-out: % Inh.): 95%
- inhibition at 20 µg/mL (porcine pancreatic PLA2 [3]; dose 20 μ/ml, read-out: % Inh.): 95%
- IC50 (porcine pancreatic PLA2 [3]): 682 nM
